Each molecule was assayed on bronchoconstriction induced by PAF (assay: Effect on bronchoconstriction induced by platelet activating factor (PAF) in guinea pigs (Konzett-Rossler method)). Settings: Cavia porcellus, po, 30 mg/kg orally 1 hour before PAF (1 μg/kg i.v.), suspended in 5% gum arabic, recorded for 15 minutes, male Hartley guinea pigs.
Type: in vivo, guinea pig (male Hartley)
Procedure: Effect On bronchoconstriction Induced By Platelet Activating Factor (PAF) In Guinea Pigs
Male Hartley guinea pigs (body weight 500 g) were used. The bronchoconstriction reaction in the guinea pig which has intravenously received PAF (1 μg/Kg) was measured by the Konzett-Rossler method. The trachea of the guinea pig with its back fixed was incised under anesthesia condition with urethane (intraperitoneal injection, 1.50 g/kg) and connected with an artificial respirator via a cannula. The branch of the tracheal cannula was connected with a transducer (7020 type, Ugobasile). Air was sent to the trachea at the volume of 3-7 ml/stroke, at the rate of 70 strokes/min. at load pressure of 10 cm H2 O to lung and overflowed air volume was recorded with Rectegraph (Recte-Hori-8s, Sanei Sokuki) via the transducer. After the guinea pig was treated with gallamine (1 mg/kg, i.v.), PAF (1 μg/kg) dissolved in a physiological saline solution was administered to the guinea pig via a jugular venous cannula and the bronchoconstriction reaction induced thereby was recorded for 15 minutes. The drug (30 mg/kg) suspended in a 5% gum arabic solution was administered orally 1 hour before the injection of PAF.
`CCC(CC)(COc1ccc2nccn2n1)CS(N)(=O)=O` [Example 47, 6-[(2,2-diethyl-3-sulfamoylpropyl)oxy]imidazo[1,2-b]pyridazine] gave an inhibition in vivo at 30 mg/kg of 90%.
Work on `CCC(COc1ccc2nccn2n1)CS(N)(=O)=O` (stereo not drawn) [Example 42] yielded an inhibition in vivo at 30 mg/kg of 55%.
`C[C@@H](CSc1ccc2nccn2n1)CS(N)(=O)=O` [Example 35, (+)-6-[(2-(S)-methyl-3-sulfamoylpropyl)thio]imidazo[1,2-b]pyridazine] showed an inhibition in vivo at 30 mg/kg of 79%.
`CN(C)S(=O)(=O)CCCSc1ccc2nccn2n1` [Example 9] was tested, and the inhibition in vivo at 30 mg/kg was 52%.
In the case of `CC(C)(CSc1ccc2nccn2n1)CS(N)(=O)=O` [Example 37, 6-[(3-sulfamoyl-2,2-dimethylpropyl)thio]imidazo[1,2-b]pyridazine], the inhibition in vivo at 30 mg/kg is reported as 99%.
`C[C@H](COc1ccc2nccn2n1)CS(N)(=O)=O` [Example 40, (+)-6-[(2-(R)-methyl-3-sulfamoylpropyl)oxy]imidazo[1,2-b]pyridazine] was tested, and the inhibition in vivo at 30 mg/kg was 53%.
Work on `NS(=O)(=O)CCCSc1ccc2ncc(Cl)n2n1` [Example 43, 3-chloro-6[(3-sulfamoylpropyl)thio]imidazo[1,2-b]pyridazine] yielded an inhibition in vivo at 30 mg/kg of 54%.
`CC(C)(COc1ccc2ncc(Cl)n2n1)CS(N)(=O)=O` [Example 45, 3-chloro-6-[(2,2-dimethyl-3-sulfamoylpropyl)oxy]imidazo[1,2-b]pyridazine] showed an inhibition in vivo at 30 mg/kg of 50%.
In the case of `Cn1cccc1CCNS(=O)(=O)CCCSc1ccc2nccn2n1` [Example 20], the inhibition in vivo at 30 mg/kg is reported as 41%.
`CC(C)(COc1ccc2nccn2n1)CS(N)(=O)=O` [Example 39, 6-[(2,2-dimethyl-3-sulfamoylpropyl)oxy]imidazo[1,2-b]pyridazine] gave an inhibition in vivo at 30 mg/kg of 72%.
In the case of `CCC(CSc1ccc2nccn2n1)CS(N)(=O)=O` (stereo not drawn) [Example 32], the inhibition in vivo at 30 mg/kg is reported as 80%.
Work on `CC(CSc1ccc2nccn2n1)CS(N)(=O)=O` (stereo not drawn) [Example 31] yielded an inhibition in vivo at 30 mg/kg of 74%.
`O=S(=O)(CCSc1ccc2nccn2n1)NC1CC1` [Example 25, 6-[2-(N-cyclopropylsulfamoyl)ethylthio] imidazo[1,2-b]pyridazine] showed an inhibition in vivo at 30 mg/kg of 47%.
`NS(=O)(=O)CCCOc1ccc2nccn2n1` [Example 41] was tested, and the inhibition in vivo at 30 mg/kg was 66%.
With `NS(=O)(=O)CCCCCSc1ccc2nccn2n1` [Example 29, 6-(5-sulfamoylpentylthio)imidazo[1,2-b]pyridazine] the inhibition in vivo at 30 mg/kg was 51%.
Molecule `NS(=O)(=O)CCCCSc1ccc2nccn2n1` [Example 30] has an inhibition in vivo at 30 mg/kg of 73%.
In the case of `NS(=O)(=O)CCSc1ccc2nccn2n1` [Example 26], the inhibition in vivo at 30 mg/kg is reported as 42%.
With `NS(=O)(=O)CC(CSc1ccc2nccn2n1)c1ccccc1` (stereo not drawn) [Example 33] the inhibition in vivo at 30 mg/kg was 52%.
`O=S(=O)(CCCSc1ccc2nccn2n1)NCCc1cccnc1` [Example 19] was tested, and the inhibition in vivo at 30 mg/kg was 41%.
`NS(=O)(=O)CCCSc1ccc2nccn2n1` [Example 1, 6-(3-sulfamoylpropylthio)imidazo [1,2-b]pyridazine] was tested, and the inhibition in vivo at 30 mg/kg was 71%.
`NS(=O)(=O)CCC(Sc1ccc2nccn2n1)c1ccccc1` (stereo not drawn) [Example 34] showed an inhibition in vivo at 30 mg/kg of 38%.

From patent publication US5155108A, “Imidazopyridazines and use as antiasthmatic agents” (Takeda Chemical Industries, Ltd., priority 1990, dated 1992)
